Test results reported in paper PMC10987348, “Ammonium nanochelators in conjunction with arginine-specific enzymes in amperometric biosensors for arginine assay” (Mikrochimica Acta, 2023).

Molecular target: T1, ADI (Metamycoplasma hominis, UniProt P41141)
T1 construct: gene arcA
Assay: amperometric detection of released ammonium (ADI/nCdCu/GCE electrode)
Format: biochemical
Conditions: immobilised enzyme on nCdCu-modified glassy carbon; pH 7.5; -200 mV vs Ag/AgCl

T1 sequence (P41141 2-409): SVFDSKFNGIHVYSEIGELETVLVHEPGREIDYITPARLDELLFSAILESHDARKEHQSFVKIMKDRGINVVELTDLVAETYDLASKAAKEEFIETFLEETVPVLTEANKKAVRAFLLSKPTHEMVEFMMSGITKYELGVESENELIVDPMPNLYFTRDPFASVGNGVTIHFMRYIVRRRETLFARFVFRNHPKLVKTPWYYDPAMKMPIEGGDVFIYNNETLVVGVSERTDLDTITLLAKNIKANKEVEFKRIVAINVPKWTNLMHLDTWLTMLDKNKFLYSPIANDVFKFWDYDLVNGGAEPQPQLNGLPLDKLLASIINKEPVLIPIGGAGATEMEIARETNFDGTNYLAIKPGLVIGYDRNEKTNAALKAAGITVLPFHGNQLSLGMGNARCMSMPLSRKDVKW

N=C(N)NCCC[C@H](N)C(=O)O [L-arginine]
amperometric detection of released ammonium (ADI/nCdCu/GCE electrode): electrocatalytic activity of three bioelectrodes was evaluated by using CV under the addition of Arg
